Measurements from patent publication US20240148821A1, “PHARMACEUTICAL USE OF CYCLIC PEPTIDE COMPOUND” (CHUGAI SEIYAKU KABUSHIKI KAISHA, priority 2021, published 2024).
Numbered stars: 1 amine (or outer) side, 2 acyl side, 3 side chain; on linkers, the order of the positions; unused ones are H or OH. Bridge positions count the residues as written; N and C are the ends. Square brackets hold non-standard residues; d marks the D form. Peptide text beside a SMILES is read from it. * marks the point of attachment. hPhe(3-Cl-4-CF3) = N[C@@H](CCc1ccc(C(F)(F)F)c(Cl)c1)C(=O)O; hPhe(3-F,4-CF3) = N[C@@H](CCc1ccc(C(F)(F)F)c(F)c1)C(=O)O; hPhe(4-CF3) = N[C@@H](CCc1ccc(C(F)(F)F)cc1)C(=O)O; NEtPhe(4-Me) = CCN[C@@H](Cc1ccc(C)cc1)C(=O)O; NMePhe(4-Cl) = CN[C@@H](Cc1ccc(Cl)cc1)C(=O)O; NMePhe(4-Me) = CN[C@@H](Cc1ccc(C)cc1)C(=O)O; NMeNle(6-CHF2) = CN[C@@H](CCCCC(F)F)C(=O)O; NMedβ3hAla = C[C@H](CC(=O)[*:2])N(C)[*:1]; NMeGly(cPent) = CN[C@H](C(=O)O)C1CCCC1; NMeCha = CN[C@@H](CC1CCCCC1)C(=O)O; Hyp = O=C(O)[C@@H]1C[C@@H](O)CN1; NMeChg = CN[C@H](C(=O)O)C1CCCCC1; NMeI = CC[C@H](C)[C@H](NC)C(=O)O; NMeD = CN[C@@H](CC(=O)O)C(=O)O; NMeL = CN[C@@H](CC(C)C)C(=O)O; NMePra = C#CC[C@H](NC)C(=O)O; NMeV = CN[C@H](C(=O)O)C(C)C; d(β3hA) = C[C@@H](N)CC(=O)O; NMeA = CN[C@@H](C)C(=O)O; NMeAib = CNC(C)(C)C(=O)O; Piperidide = C1CCN(*)CC1; Pyrrolidide = C1CCN(*)C1; Ac5c = NC1(C(=O)O)CCCC1; Aze = O=C(O)[C@@H]1CCN1; Aib = CC(C)(N)C(=O)O; Sar = CNCC(=O)O; OAll = C=CCO*

Columns and labels:
[1] = target: protein-protein interaction between Kras and SOS1 (biotin-tagged human Kras loaded with GDP, His-tagged human SOS1) (Homo sapiens (Human), UniProt P01116, G12D); test: Protein-protein interaction inhibition between Kras and SOS1 (KrasG12D-SOS PPI) using AlphaScreen; type: biochemical; settings: AlphaScreen; biotin-tagged human Kras loaded with GDP, His-tagged human SOS1; read-out: KRAS G12D-SOS PPI IC50;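 also: kras produced in E. coli, Ni-coupled donor beads and streptavidin acceptor beads, excitation 680 nm with emission detected at 520–620 nm via singlet oxygen transfer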
[2] = tested on: Human pancreatic cancer cell line AsPC-1 (G12D mutation Kras); test: AsPC-1 cell growth inhibition (AsPC-1 CGI); type: cell-based; settings: read-out: AsPC-1 cell growth inhibition, 50% growth inhibitory concentration (IC50 value); 96 hours, CellTiter-Glo, values classified in ranges
Method: Test compounds were serially dilated with dimethyl sulfoxide, and 200 nL was then dispensed to a U-bottom 96-well plate using Labcyte Echo. […] The cell suspension was dispensed to a. plate containing a test compound at 100 μL per well and incubated at 37° C. in a 5% carbon dioxide gas incubator. 96 hours later, 80 μL of CellTiter-Glo (Promega) was added to each well and fluorescence was measured.

SMILES: C#CC[C@H]1C(=O)N(C)[C@H](C(=O)N2CCCCC2)CC(=O)N(C)[C@@H](CC(C)C)C(=O)N[C@@H]([C@@H](C)CC)C(=O)N(C)[C@@H](C)C(=O)N2CC[C@H]2C(=O)N(C)[C@@H](CC2CCCCC2)C(=O)N(C)CC(=O)N[C@@H](CCc2ccc(C(F)(F)F)c(Cl)c2)C(=O)N2CCC[C@H]2C(=O)NC2(CCCC2)C(=O)N1C [Compound 766] ([NMeL]I[NMeA][Aze][NMeCha][Sar][hPhe(3-Cl-4-CF3)]P[Ac5c][NMePra][NMeD]-Piperidide; lactam N-11)
- IC50 [1]: 130 nM
- IC50 [2]: > 500 nM

SMILES: CC[C@H](C)[C@@H]1NC(=O)[C@H](C(C)C)N(C)C(=O)C[C@@H](C(=O)N2CCCC2)NC(=O)[C@H](CC(C)C)N(C)C(=O)C2(CCCC2)NC(=O)[C@H](CC(C)C)N(C)C(=O)[C@H](CCc2ccc(C(F)(F)F)cc2)NC(=O)CN(C)C(=O)[C@H](Cc2ccc(Cl)cc2)N(C)C(=O)CN(C)C(=O)CN(C)C1=O [Compound 769] ([NMeV]I[Sar][Sar][NMePhe(4-Cl)][Sar][hPhe(4-CF3)][NMeL][Ac5c][NMeL]D-Pyrrolidide; lactam N-11)
- IC50 [1]: 52 nM
- IC50 [2]: > 500 nM

SMILES: CCO[C@@H]1C[C@H]2C(=O)NC3(CCCC3)C(=O)N(C)[C@@H](C3CCCC3)C(=O)N(C)[C@H](C)CC(=O)N(C)[C@@H](CC(C)C)C(=O)N[C@@H]([C@@H](C)CC)C(=O)N(C)[C@@H](C)C(=O)N3CC[C@H]3C(=O)N(CC)[C@@H](Cc3ccc(C)cc3)C(=O)N(C)CC(=O)N[C@@H](CCc3ccc(C(F)(F)F)c(Cl)c3)C(=O)N2C1 [Compound 775] (cyclo([Ac5c][NMeGly(cPent)][NMedβ3hAla][NMeL]I[NMeA][Aze][NEtPhe(4-Me)][Sar][hPhe(3-Cl-4-CF3)][Hyp](Et)))
- IC50 [1]: 4.6 nM
- IC50 [2]: ≤ 20 nM

SMILES: CC[C@H](C)[C@@H]1NC(=O)[C@H](CC(C)C)N(C)C(=O)C[C@@H](C(=O)N(C)C)N(C)C(=O)[C@H]([C@@H](C)CC)N(C)C(=O)[C@H](C(C)C)NC(=O)[C@@H]2CCCN2C(=O)[C@H](CCc2ccc(C(F)(F)F)c(Cl)c2)NC(=O)CN(C)C(=O)[C@H](Cc2ccc(C)cc2)N(C)C(=O)[C@@H]2CCN2C(=O)[C@H](C)N(C)C1=O [Compound 784] ([NMeL]I[NMeA][Aze][NMePhe(4-Me)][Sar][hPhe(3-Cl-4-CF3)]PV[NMeI][NMeD]-NMe2; lactam N-11)
- IC50 [1]: 4 nM
- IC50 [2]: > 500 nM

SMILES: CC[C@H](C)[C@@H]1NC(=O)[C@H](C)N(C)C(=O)C[C@@H](C)NC(=O)[C@H](CC(C)C)N(C)C(=O)C(C)(C)NC(=O)[C@H](CC(C)C)N(C)C(=O)[C@H](CCc2ccc(C(F)(F)F)cc2)NC(=O)CN(C)C(=O)[C@H](Cc2ccc(Cl)cc2)N(C)C(=O)CN(C)C(=O)CN(C)C1=O [Compound 788] (cyclo([Aib][NMeL][d(β3hA)][NMeA]I[Sar][Sar][NMePhe(4-Cl)][Sar][hPhe(4-CF3)][NMeL]))
- IC50 [1]: 13 nM
- IC50 [2]: > 500 nM

SMILES: C=CCOC(=O)C[C@H]1C(=O)NC2(CCCC2)C(=O)N(C)[C@@H](C(C)C)C(=O)N(C)[C@H](C(=O)N2CCCCC2)CC(=O)N(C)[C@@H](C)C(=O)N[C@@H]([C@@H](C)CC)C(=O)N(C)CC(=O)N(C)CC(=O)N(C)[C@@H](CC2CCCCC2)C(=O)N(C)CC(=O)N[C@@H](CCc2ccc(C(F)(F)F)c(Cl)c2)C(=O)N1C [Compound 792] ([NMeA]I[Sar][Sar][NMeCha][Sar][hPhe(3-Cl-4-CF3)][NMeD](OAll)[Ac5c][NMeV][NMeD]-Piperidide; lactam N-11)
- IC50 [1]: 3.5 nM
- IC50 [2]: > 500 nM

SMILES: CC[C@H](C)[C@@H]1NC(=O)[C@H](CC(C)C)N(C)C(=O)C[C@@H](C(=O)N2CCCCC2)N(C)C(=O)[C@H](C2CCCCC2)N(C)C(=O)C2(CCCC2)NC(=O)[C@H](CCCCC(F)F)N(C)C(=O)[C@H](CCc2ccc(C(F)(F)F)c(Cl)c2)NC(=O)CN(C)C(=O)[C@H](CC2CCCCC2)N(C)C(=O)CN(C)C(=O)CN(C)C1=O [Compound 796] ([NMeL]I[Sar][Sar][NMeCha][Sar][hPhe(3-Cl-4-CF3)][NMeNle(6-CHF2)][Ac5c][NMeChg][NMeD]-Piperidide; lactam N-11)
- IC50 [1]: 9.3 nM
- IC50 [2]: > 500 nM

SMILES: CC[C@H](C)[C@@H]1NC(=O)[C@H](CC(C)C)N(C)C(=O)C[C@@H](C)N(C)C(=O)[C@H](CC(C)C)NC(=O)C(C)(C)N(C)C(=O)[C@H](CC(C)C)NC(=O)[C@H](CCc2ccc(C(F)(F)F)c(F)c2)NC(=O)CN(C)C(=O)[C@H](Cc2ccc(Cl)cc2)N(C)C(=O)CN(C)C(=O)CN(C)C1=O [Compound 797] (cyclo(I[Sar][Sar][NMePhe(4-Cl)][Sar][hPhe(3-F,4-CF3)]L[NMeAib]L[NMedβ3hAla][NMeL]))
- IC50 [1]: 19 nM
- IC50 [2]: > 500 nM

SMILES: CC[C@H](C)[C@@H]1NC(=O)[C@H](CC(C)C)N(C)C(=O)C[C@@H](C(=O)N2CCCC2)N(C)C(=O)[C@H]([C@@H](C)CC)N(C)C(=O)C2(CCCC2)NC(=O)[C@@H]2CCCN2C(=O)[C@H](CCc2ccc(C(F)(F)F)c(Cl)c2)NC(=O)CN(C)C(=O)[C@H](C2CCCC2)N(C)C(=O)[C@@H]2CCN2C(=O)[C@H](C)N(C)C1=O [Compound 799] ([NMeL]I[NMeA][Aze][NMeGly(cPent)][Sar][hPhe(3-Cl-4-CF3)]P[Ac5c][NMeI][NMeD]-Pyrrolidide; lactam N-11)
- IC50 [1]: 1.4 nM
- IC50 [2]: ≤ 20 nM
